Laboratory results: PubChem BioAssay (NCI)
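Tested at 5 concentrations; 48 h exposure; 96-well plates; endpoints linearly interpolated, else capped at highest concentration. GI50 = concentration required for 50% inhibition of growth. TGI denotes the concentration required for complete inhibition of growth.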

System: HOP-62 NSCLC
Assay: NCI tumour cell line growth inhibition, 48 h

| Structure (SMILES) | GI50 | TGI |
| --- | --- | --- |
| Nc1nc2c(c3cnccc13)C(c1ccc(Cl)c(Cl)c1)Cc1cnccc1-2 (stereo not drawn) | 0.583 µM | 4.99 µM |
| CN(C)CCCC1(c2ccc(F)cc2)OCc2cc(-c3cccc4[nH]ccc34)ccc21 (stereo not drawn) | 1.5 µM | 2.89 µM |

System: HOP-92 NSCLC
Assay: NCI tumour cell line growth inhibition, 48 h

| Structure (SMILES) | GI50 | TGI |
| --- | --- | --- |
| Cc1ccc2c(-c3ccnc(Nc4ccc5c(c4)OCCO5)n3)c(-c3ccc(C(F)(F)F)cc3)nn2n1 | 1.4 µM | 19.2 µM |
| Nc1nc2c(c3cnccc13)C(c1ccc(Cl)c(Cl)c1)Cc1cnccc1-2 (stereo not drawn) | 1.88 µM | 14.5 µM |
| CN(C)CCCC1(c2ccc(F)cc2)OCc2cc(-c3cccc4[nH]ccc34)ccc21 (stereo not drawn) | 1.25 µM | 2.81 µM |

System: HS 578T breast
Assay: NCI tumour cell line growth inhibition, 48 h

| Structure (SMILES) | GI50 | TGI |
| --- | --- | --- |
| Cc1ccc2c(-c3ccnc(Nc4ccc5c(c4)OCCO5)n3)c(-c3ccc(C(F)(F)F)cc3)nn2n1 | 12.4 µM | > 25 µM |
| Nc1nc2c(c3cnccc13)C(c1ccc(Cl)c(Cl)c1)Cc1cnccc1-2 (stereo not drawn) | 0.818 µM | 22 µM |
| CN(C)CCCC1(c2ccc(F)cc2)OCc2cc(-c3cccc4[nH]ccc34)ccc21 (stereo not drawn) | 2.12 µM | 5.03 µM |

System: HT29 colon
Assay: NCI tumour cell line growth inhibition, 48 h

| Structure (SMILES) | GI50 | TGI |
| --- | --- | --- |
| Cc1ccc2c(-c3ccnc(Nc4ccc5c(c4)OCCO5)n3)c(-c3ccc(C(F)(F)F)cc3)nn2n1 | 4.42 µM | > 25 µM |
| Nc1nc2c(c3cnccc13)C(c1ccc(Cl)c(Cl)c1)Cc1cnccc1-2 (stereo not drawn) | 0.37 µM | 3.31 µM |
| CN(C)CCCC1(c2ccc(F)cc2)OCc2cc(-c3cccc4[nH]ccc34)ccc21 (stereo not drawn) | 1.6 µM | 3.39 µM |

System: IGROV1 ovarian
Assay: NCI tumour cell line growth inhibition, 48 h

| Structure (SMILES) | GI50 | TGI |
| --- | --- | --- |
| Cc1ccc2c(-c3ccnc(Nc4ccc5c(c4)OCCO5)n3)c(-c3ccc(C(F)(F)F)cc3)nn2n1 | 2.76 µM | > 25 µM |
| Nc1nc2c(c3cnccc13)C(c1ccc(Cl)c(Cl)c1)Cc1cnccc1-2 (stereo not drawn) | 1.85 µM | 17.8 µM |
| CN(C)CCCC1(c2ccc(F)cc2)OCc2cc(-c3cccc4[nH]ccc34)ccc21 (stereo not drawn) | 1.33 µM | 2.73 µM |

System: K-562 leukemia
Assay: NCI tumour cell line growth inhibition, 48 h

| Structure (SMILES) | GI50 | TGI |
| --- | --- | --- |
| Cc1ccc2c(-c3ccnc(Nc4ccc5c(c4)OCCO5)n3)c(-c3ccc(C(F)(F)F)cc3)nn2n1 | 20.3 µM | > 25 µM |
| Nc1nc2c(c3cnccc13)C(c1ccc(Cl)c(Cl)c1)Cc1cnccc1-2 (stereo not drawn) | 0.452 µM | 32.8 µM |
| CN(C)CCCC1(c2ccc(F)cc2)OCc2cc(-c3cccc4[nH]ccc34)ccc21 (stereo not drawn) | 1.4 µM | 3.32 µM |

System: KM12 colon
Assay: NCI tumour cell line growth inhibition, 48 h

| Structure (SMILES) | GI50 | TGI |
| --- | --- | --- |
| Cc1ccc2c(-c3ccnc(Nc4ccc5c(c4)OCCO5)n3)c(-c3ccc(C(F)(F)F)cc3)nn2n1 | 14.1 µM | > 25 µM |
| Nc1nc2c(c3cnccc13)C(c1ccc(Cl)c(Cl)c1)Cc1cnccc1-2 (stereo not drawn) | 0.48 µM | 12.6 µM |
| CN(C)CCCC1(c2ccc(F)cc2)OCc2cc(-c3cccc4[nH]ccc34)ccc21 (stereo not drawn) | 1.74 µM | 3.27 µM |

System: LOX IMVI melanoma
Assay: NCI tumour cell line growth inhibition, 48 h

| Structure (SMILES) | GI50 | TGI |
| --- | --- | --- |
| Cc1ccc2c(-c3ccnc(Nc4ccc5c(c4)OCCO5)n3)c(-c3ccc(C(F)(F)F)cc3)nn2n1 | 1.5 µM | 6.68 µM |
| Nc1nc2c(c3cnccc13)C(c1ccc(Cl)c(Cl)c1)Cc1cnccc1-2 (stereo not drawn) | 0.293 µM | 11 µM |
| CN(C)CCCC1(c2ccc(F)cc2)OCc2cc(-c3cccc4[nH]ccc34)ccc21 (stereo not drawn) | 1.71 µM | 3.2 µM |

System: M14 melanoma
Assay: NCI tumour cell line growth inhibition, 48 h

| Structure (SMILES) | GI50 | TGI |
| --- | --- | --- |
| Cc1ccc2c(-c3ccnc(Nc4ccc5c(c4)OCCO5)n3)c(-c3ccc(C(F)(F)F)cc3)nn2n1 | 3.58 µM | 9.43 µM |
| Nc1nc2c(c3cnccc13)C(c1ccc(Cl)c(Cl)c1)Cc1cnccc1-2 (stereo not drawn) | 0.36 µM | 2.16 µM |
| CN(C)CCCC1(c2ccc(F)cc2)OCc2cc(-c3cccc4[nH]ccc34)ccc21 (stereo not drawn) | 1.66 µM | 3.33 µM |

System: MALME-3M melanoma
Assay: NCI tumour cell line growth inhibition, 48 h

| Structure (SMILES) | GI50 | TGI |
| --- | --- | --- |
| Cc1ccc2c(-c3ccnc(Nc4ccc5c(c4)OCCO5)n3)c(-c3ccc(C(F)(F)F)cc3)nn2n1 | > 25 µM | > 25 µM |
| Nc1nc2c(c3cnccc13)C(c1ccc(Cl)c(Cl)c1)Cc1cnccc1-2 (stereo not drawn) | 0.915 µM | 18.6 µM |
| CN(C)CCCC1(c2ccc(F)cc2)OCc2cc(-c3cccc4[nH]ccc34)ccc21 (stereo not drawn) | 1.56 µM | 3.01 µM |

System: MCF7 breast
Assay: NCI tumour cell line growth inhibition, 48 h

| Structure (SMILES) | GI50 | TGI |
| --- | --- | --- |
| Cc1ccc2c(-c3ccnc(Nc4ccc5c(c4)OCCO5)n3)c(-c3ccc(C(F)(F)F)cc3)nn2n1 | 5.66 µM | > 25 µM |
| Nc1nc2c(c3cnccc13)C(c1ccc(Cl)c(Cl)c1)Cc1cnccc1-2 (stereo not drawn) | 0.305 µM | 11.7 µM |
| CN(C)CCCC1(c2ccc(F)cc2)OCc2cc(-c3cccc4[nH]ccc34)ccc21 (stereo not drawn) | 1.55 µM | 3.25 µM |

System: MDA-MB-231 breast
Assay: NCI tumour cell line growth inhibition, 48 h

| Structure (SMILES) | GI50 | TGI |
| --- | --- | --- |
| Cc1ccc2c(-c3ccnc(Nc4ccc5c(c4)OCCO5)n3)c(-c3ccc(C(F)(F)F)cc3)nn2n1 | 1.25 µM | > 25 µM |
| Nc1nc2c(c3cnccc13)C(c1ccc(Cl)c(Cl)c1)Cc1cnccc1-2 (stereo not drawn) | 0.937 µM | 14.8 µM |
| CN(C)CCCC1(c2ccc(F)cc2)OCc2cc(-c3cccc4[nH]ccc34)ccc21 (stereo not drawn) | 1.49 µM | 2.9 µM |

System: MDA-MB-435
Assay: NCI tumour cell line growth inhibition, 48 h

| Structure (SMILES) | GI50 | TGI |
| --- | --- | --- |
| Cc1ccc2c(-c3ccnc(Nc4ccc5c(c4)OCCO5)n3)c(-c3ccc(C(F)(F)F)cc3)nn2n1 | 17.2 µM | > 25 µM |
| Nc1nc2c(c3cnccc13)C(c1ccc(Cl)c(Cl)c1)Cc1cnccc1-2 (stereo not drawn) | 0.241 µM | 0.646 µM |
| CN(C)CCCC1(c2ccc(F)cc2)OCc2cc(-c3cccc4[nH]ccc34)ccc21 (stereo not drawn) | 1.76 µM | 3.31 µM |

System: MOLT-4 leukemia
Assay: NCI tumour cell line growth inhibition, 48 h

| Structure (SMILES) | GI50 | TGI |
| --- | --- | --- |
| Cc1ccc2c(-c3ccnc(Nc4ccc5c(c4)OCCO5)n3)c(-c3ccc(C(F)(F)F)cc3)nn2n1 | 6.89 µM | > 25 µM |
| Nc1nc2c(c3cnccc13)C(c1ccc(Cl)c(Cl)c1)Cc1cnccc1-2 (stereo not drawn) | 0.48 µM | 5.48 µM |
| CN(C)CCCC1(c2ccc(F)cc2)OCc2cc(-c3cccc4[nH]ccc34)ccc21 (stereo not drawn) | 1.49 µM | 3.22 µM |

System: NCI-H226 lung
Assay: NCI tumour cell line growth inhibition, 48 h

| Structure (SMILES) | GI50 | TGI |
| --- | --- | --- |
| Cc1ccc2c(-c3ccnc(Nc4ccc5c(c4)OCCO5)n3)c(-c3ccc(C(F)(F)F)cc3)nn2n1 | 11.5 µM | > 25 µM |
| Nc1nc2c(c3cnccc13)C(c1ccc(Cl)c(Cl)c1)Cc1cnccc1-2 (stereo not drawn) | 1.23 µM | 3.94 µM |
| CN(C)CCCC1(c2ccc(F)cc2)OCc2cc(-c3cccc4[nH]ccc34)ccc21 (stereo not drawn) | 1.76 µM | 3.52 µM |
